{"source": "patent US8604059B2", "about": "“Thioxanthene derivatives for the treatment of infectious diseases” (BKG Pharma APS, priority 2009, dated 2013)", "key": {"[1]": {"tested_on": "S. aureus", "experiment": "MIC, microdilution broth, multiresistant clinical isolates (Table 1A)", "format": "cell-based", "details": "Staphylococcus aureus; ten multiresistant clinical isolates; read-out: Median MIC S. aureus", "protocol": "(§1) Cell growth was tested using the Minimal Inhibitory Concentration (MIC) susceptibility tests by use of the microdilution broth method in accordance to the NCCLS Guidelines (NCCLS Guidelines, Methods for Dilution Antimicrobial Susceptibility Tests for Bacteria That Grow Aerobically; Approved Standard, Sixth Edition, Volume 23; Number 2). The minimum inhibitory concentration (MIC), is defined as the lowest concentration of drug which inhibits growth of the test organism, in the sense that no visible growth is detected (total inhibition of growth). In example 2, MIC of the compounds used on fungal microorgansims was determined from the IC90 measurements according to NCCLS Guidelines.\n(§2) A log phase culture of bacteria was diluted with fresh pre-warmed Mueller-Hinton medium and adjusted to a defined OD at 600 nm in order to give a final concentration of 1×10^4-5 bacteria/ml medium. The bacterial culture was transferred to microtiter-plates and culture was added to each well. […] Trays were incubated at 37° C. by shaking in a robot analyzer, PowerWavex, software KC^4′ Kebo. Lab, Copenhagen, for 16 h and optical densities were measured at 600 nm during the incubation time in order to record growth curves. Wells containing bacterial culture without drug were used as controls to ensure correct inoculum size and bacterial growth during the incubation. Cultures were tested in order to detect contaminations. Each experiment was repeated in triplicate.\n(§3) Ten strains in each test group."}, "[2]": {"tested_on": "E. coli", "experiment": "MIC, microdilution broth, multiresistant clinical isolates (Table 1A)", "format": "cell-based", "details": "Escherichia coli; ten multiresistant clinical isolates; read-out: Median MIC E. coli", "protocol": "as §1, §2, §3"}, "[3]": {"tested_on": "E. faecalis", "experiment": "MIC, microdilution broth, multiresistant clinical isolates (Table 1A)", "format": "cell-based", "details": "Enterococcus faecalis; ten multiresistant clinical isolates; read-out: Median MIC E. faecalis", "protocol": "as §1, §2, §3"}, "[4]": {"tested_on": "S. epidermidis", "experiment": "MIC, microdilution broth, multiresistant clinical isolates (Table 1A)", "format": "cell-based", "details": "Staphylococcus epidermidis; ten multiresistant clinical isolates; read-out: Median MIC S. epidermidis", "protocol": "as §1, §2, §3"}, "[5]": {"tested_on": "E. faecium", "experiment": "MIC, microdilution broth, multiresistant clinical isolates (Table 1A)", "format": "cell-based", "details": "Enterococcus faecium; ten multiresistant clinical isolates; read-out: Median MIC E. faecium", "protocol": "as §1, §2, §3"}, "[6]": {"tested_on": "S. aureus MRSA clinical isolates", "experiment": "FIC index, synergy with antibiotics (Table 4a)", "format": "cell-based, Staphylococcus aureus", "details": "with Dicloxacillin; 8 MRSA; mean; compound at ¼ of MIC", "protocol": "The effect of the compounds was tested according to the methods described in WO2005/105145. In brief, cell growth was tested using the MIC susceptibility tests by use of the microdilution broth method in accordance to the NCCLS Guidelines (NCCLS Guidelines, Methods for Dilution Antimicrobial Susceptibility Tests for Bacteria That Grow Aerobically; Approved Standard, Sixth Edition, Volume 23; Number 2).\nThe Fractional Inhibitory Concentration (FIC) index were calculated for each compound as described in WO2005/105145. Synergy was defined for Fractional Inhibitory Concentration (FIC) indices less than 0.5\nStaphylococcus aureus: 8 (MRSA) in vivo-selected clinical isolates. Resistant to methicillin and beta-lactam antibiotics. Susceptible to teicoplanin chloramphenicol, fosfomycin, netilmicin and vancomycin."}}, "data": [{"smiles": "Clc1ccc2c(c1)/C(=C/CCC1CCNCC1)c1ccccc1S2", "note": "[Compound 3]", "values": [{"measurement": "MIC", "setting": "[1]", "result": 2, "unit": "mg/L"}, {"measurement": "MIC", "setting": "[2]", "result": 3, "unit": "mg/L"}, {"measurement": "MIC", "setting": "[3]", "result": 0.1, "unit": "mg/L"}, {"measurement": "MIC", "setting": "[4]", "result": 1, "unit": "mg/L"}, {"measurement": "MIC", "setting": "[5]", "result": 0.1, "unit": "mg/L"}, {"measurement": "FIC index", "setting": "[6]", "result": 0.25}]}]}
